According to PubChem BioAssay (NCI):
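All cell lines were grown in 96-well plates and treated with compound for 48 hours. The concentration for 50% growth inhibition is given as GI50. Definition used: TGI = concentration required for complete inhibition of growth.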

Key:
Test in all cases: NCI tumour cell line growth inhibition, 48 h
SW-620 colon = test system: SW-620 colon
IGROV1 ovarian = test system: IGROV1 ovarian
SF-268 CNS = test system: SF-268 CNS
OVCAR-3 ovarian = test system: OVCAR-3 ovarian
NCI-H23 lung = test system: NCI-H23 lung
MALME-3M melanoma = test system: MALME-3M melanoma
OVCAR-8 ovarian = test system: OVCAR-8 ovarian
HCC-2998 colon = test system: HCC-2998 colon
K-562 leukemia = test system: K-562 leukemia
SNB-19 CNS = test system: SNB-19 CNS

Which GI50 (SW-620 colon) does the source give for `CC[O-].CC[O-].[O-]c1ccccc1C=NC12CC3CC(CC(C3)C1)C2.[O-]c1ccccc1C=NC12CC3CC(CC(C3)C1)C2.[Ti+4]` here?
The GI50 was over 100 µM.

And the TGI (SW-620 colon)?
The TGI was over 100 µM.

What about the GI50 (IGROV1 ovarian) of the same molecule?
The GI50 was over 100 µM.

What about the TGI (IGROV1 ovarian) of the same molecule?
The TGI was over 100 µM.

And the GI50 (SF-268 CNS)?
The GI50 was 92.5 µM.

And the TGI (SF-268 CNS)?
Its TGI is over 100 µM.

What about the GI50 (OVCAR-3 ovarian) of the same molecule?
Its GI50 is over 100 µM.

What about the TGI (OVCAR-3 ovarian) of the same molecule?
The TGI was over 100 µM.

And the GI50 (NCI-H23 lung)?
The GI50 was 50 µM.

And the TGI (NCI-H23 lung)?
Its TGI is over 100 µM.

What about the GI50 (MALME-3M melanoma) of the same molecule?
Its GI50 is 64.2 µM.

And the TGI (MALME-3M melanoma)?
The TGI was over 100 µM.

What about the GI50 (OVCAR-8 ovarian) of the same molecule?
Its GI50 is over 100 µM.

What about the TGI (OVCAR-8 ovarian) of the same molecule?
The TGI was over 100 µM.

What about the GI50 (HCC-2998 colon) of the same molecule?
The GI50 was over 100 µM.

And the TGI (HCC-2998 colon)?
The TGI was over 100 µM.

What about the GI50 (K-562 leukemia) of the same molecule?
The GI50 was 31.4 µM.

What about the TGI (K-562 leukemia) of the same molecule?
The TGI was over 100 µM.

What about the GI50 (SNB-19 CNS) of the same molecule?
The GI50 was over 100 µM.

And the TGI (SNB-19 CNS)?
The TGI was over 100 µM.

`CS(=O)(=O)N(CCC#N)c1ccc(/C=C2\N=C(c3ccccc3Cl)OC2=O)cc1` was tested. Which TGI (SW-620 colon) did it give?
Its TGI is over 100 µM.

What about the TGI (IGROV1 ovarian) of the same molecule?
Its TGI is over 100 µM.

What about the TGI (SF-268 CNS) of the same molecule?
The TGI was over 100 µM.

And the TGI (OVCAR-3 ovarian)?
Its TGI is over 100 µM.

And the TGI (NCI-H23 lung)?
The TGI was over 100 µM.

And the TGI (MALME-3M melanoma)?
Its TGI is over 100 µM.

What about the TGI (OVCAR-8 ovarian) of the same molecule?
The TGI was over 100 µM.

What about the TGI (HCC-2998 colon) of the same molecule?
The TGI was over 100 µM.

And the TGI (K-562 leukemia)?
The TGI was over 100 µM.

What about the TGI (SNB-19 CNS) of the same molecule?
The TGI was over 100 µM.

With `O=S1(=O)[C@H](c2ccccc2)c2c(-c3ccccc3)sc(-c3ccccc3)c2[C@@H]1c1ccccc1` as the molecule, how does the TGI (SW-620 colon) read?
The TGI was over 100 µM.

And the TGI (IGROV1 ovarian)?
Its TGI is over 100 µM.

What about the TGI (SF-268 CNS) of the same molecule?
The TGI was over 100 µM.

And the TGI (OVCAR-3 ovarian)?
Its TGI is over 100 µM.

And the TGI (NCI-H23 lung)?
Its TGI is over 100 µM.

What about the TGI (MALME-3M melanoma) of the same molecule?
Its TGI is over 100 µM.

What about the TGI (OVCAR-8 ovarian) of the same molecule?
The TGI was over 100 µM.

And the TGI (HCC-2998 colon)?
Its TGI is over 100 µM.

What about the TGI (K-562 leukemia) of the same molecule?
The TGI was over 100 µM.

What about the TGI (SNB-19 CNS) of the same molecule?
Its TGI is over 100 µM.

With `COCCn1c(Nc2ccc(C(=O)NO)cc2)nc2ccccc21` as the molecule, how does the GI50 (SW-620 colon) read?
Its GI50 is 2.34 µM.

What about the TGI (SW-620 colon) of the same molecule?
Its TGI is 7.14 µM.

And the GI50 (IGROV1 ovarian)?
Its GI50 is 2.39 µM.

What about the TGI (IGROV1 ovarian) of the same molecule?
The TGI was 15.2 µM.

And the GI50 (SF-268 CNS)?
Its GI50 is 4.9 µM.

And the TGI (SF-268 CNS)?
The TGI was 17.5 µM.

What about the GI50 (OVCAR-3 ovarian) of the same molecule?
The GI50 was 3.24 µM.

And the TGI (OVCAR-3 ovarian)?
The TGI was 14.1 µM.

And the GI50 (NCI-H23 lung)?
Its GI50 is 4.43 µM.

And the TGI (NCI-H23 lung)?
Its TGI is 16.3 µM.

What about the GI50 (MALME-3M melanoma) of the same molecule?
The GI50 was 2.07 µM.

What about the TGI (MALME-3M melanoma) of the same molecule?
The TGI was 9.02 µM.

What about the GI50 (OVCAR-8 ovarian) of the same molecule?
The GI50 was 2.69 µM.

What about the TGI (OVCAR-8 ovarian) of the same molecule?
Its TGI is 16 µM.

And the GI50 (HCC-2998 colon)?
The GI50 was 3.32 µM.

And the TGI (HCC-2998 colon)?
The TGI was 12.6 µM.

And the GI50 (K-562 leukemia)?
Its GI50 is 3.03 µM.

And the TGI (K-562 leukemia)?
Its TGI is over 100 µM.

And the GI50 (SNB-19 CNS)?
The GI50 was 10.7 µM.

What about the TGI (SNB-19 CNS) of the same molecule?
Its TGI is 30 µM.

For `C=CCn1c(SCC(=O)Nc2ccc(C(=O)/C=C/c3cc(OC)c(OC)c(OC)c3)cc2)nnc1-c1cc(OC)c(OC)c(OC)c1`, which GI50 (SW-620 colon) is on record?
Its GI50 is 3.37 µM.

What about the TGI (SW-620 colon) of the same molecule?
Its TGI is 16 µM.

What about the GI50 (IGROV1 ovarian) of the same molecule?
The GI50 was 3.42 µM.

What about the TGI (IGROV1 ovarian) of the same molecule?
Its TGI is 18.4 µM.

What about the GI50 (SF-268 CNS) of the same molecule?
The GI50 was 3.99 µM.

And the TGI (SF-268 CNS)?
The TGI was 64.6 µM.

What about the GI50 (OVCAR-3 ovarian) of the same molecule?
The GI50 was 2.98 µM.

What about the TGI (OVCAR-3 ovarian) of the same molecule?
Its TGI is 8.46 µM.

And the GI50 (NCI-H23 lung)?
Its GI50 is 3.41 µM.

And the TGI (NCI-H23 lung)?
Its TGI is 26 µM.

What about the GI50 (MALME-3M melanoma) of the same molecule?
The GI50 was 11.1 µM.

And the TGI (MALME-3M melanoma)?
Its TGI is 64.4 µM.

What about the GI50 (OVCAR-8 ovarian) of the same molecule?
The GI50 was 5.94 µM.

What about the TGI (OVCAR-8 ovarian) of the same molecule?
Its TGI is 34.9 µM.

And the GI50 (HCC-2998 colon)?
The GI50 was 2.05 µM.

And the TGI (HCC-2998 colon)?
Its TGI is 4.48 µM.

And the GI50 (K-562 leukemia)?
Its GI50 is 3.44 µM.

And the TGI (K-562 leukemia)?
The TGI was over 100 µM.

What about the GI50 (SNB-19 CNS) of the same molecule?
The GI50 was 4.3 µM.

What about the TGI (SNB-19 CNS) of the same molecule?
The TGI was 73.2 µM.

`CC1=NC2(C(=O)O)C3(C(=O)O)N=C(C)OC3(C(F)(F)F)C2(C(F)(F)F)O1` (stereo not given) was tested. Which TGI (SW-620 colon) did it give?
Its TGI is over 100 µM.

And the TGI (IGROV1 ovarian)?
The TGI was over 100 µM.

And the TGI (SF-268 CNS)?
The TGI was over 100 µM.

What about the TGI (OVCAR-3 ovarian) of the same molecule?
The TGI was over 100 µM.

What about the TGI (NCI-H23 lung) of the same molecule?
Its TGI is over 100 µM.

And the TGI (MALME-3M melanoma)?
Its TGI is over 100 µM.

And the TGI (OVCAR-8 ovarian)?
Its TGI is over 100 µM.

What about the TGI (HCC-2998 colon) of the same molecule?
Its TGI is over 100 µM.

What about the TGI (K-562 leukemia) of the same molecule?
Its TGI is over 100 µM.

And the TGI (SNB-19 CNS)?
Its TGI is over 100 µM.

For `CCN(CC)C(=O)c1cccc2c(OC)ccc(OC)c12`, which TGI (SW-620 colon) is on record?
Its TGI is over 100 µM.

And the TGI (IGROV1 ovarian)?
The TGI was over 100 µM.

What about the TGI (SF-268 CNS) of the same molecule?
Its TGI is over 100 µM.

What about the TGI (OVCAR-3 ovarian) of the same molecule?
Its TGI is over 100 µM.

What about the TGI (NCI-H23 lung) of the same molecule?
Its TGI is over 100 µM.

And the TGI (MALME-3M melanoma)?
The TGI was over 100 µM.

What about the TGI (OVCAR-8 ovarian) of the same molecule?
The TGI was over 100 µM.

What about the TGI (HCC-2998 colon) of the same molecule?
Its TGI is over 100 µM.

What about the TGI (K-562 leukemia) of the same molecule?
The TGI was over 100 µM.

And the TGI (SNB-19 CNS)?
The TGI was over 100 µM.
